# Assay results as given in patent publication US20240398806A1, “Compositions For and Methods of Treating and/or Preventing Pain” (Duke University, priority 2021, published 2024).
# Experiments:
# NTSR1 [1] = molecular target: T1, NTSR1 (Homo sapiens, UniProt P30989); experiment: [3H]NTS saturation binding to NTSR1-containing HEK293T cell membranes in absence and presence of SBI-553; set-up: expressed in transfected cells; host or cells: HEK293T cell membranes
# Source text: FIG. 4A-FIG. 4D show SBI-553 activates NTSR1 to stimulate β-arrestin-associated cellular responses.
# (§1) Preliminary studies provided significant data for this example. SBI-553 was derived from a medicinal chemistry campaign to improve the ML314 probe series and was selected for potency, pharmacokinetic profile, and selectivity for NTSR1 over the NTSR2 (Pinkerton A B, et al. (2019) J Med Chem. 62(17):8357-8363, which is incorporated by reference for its teachings of the making of SBI-553). […] Binding specificity to NTSR1 was further confirmed by comparing membranes containing an off-target receptor (i.e., b2-adrenergic receptor) (Slosky L M, et al. (2020) Cell. 181(6):1364-1379e14). […] These findings indicate that SBI-553 is a β-arrestin-biased ligand that stimulates β-arrestin-mediated processes at NTSR1 […] without activating Gq protein signaling (FIG. 5).
# Target sequence in this assay (P30989 whole entry): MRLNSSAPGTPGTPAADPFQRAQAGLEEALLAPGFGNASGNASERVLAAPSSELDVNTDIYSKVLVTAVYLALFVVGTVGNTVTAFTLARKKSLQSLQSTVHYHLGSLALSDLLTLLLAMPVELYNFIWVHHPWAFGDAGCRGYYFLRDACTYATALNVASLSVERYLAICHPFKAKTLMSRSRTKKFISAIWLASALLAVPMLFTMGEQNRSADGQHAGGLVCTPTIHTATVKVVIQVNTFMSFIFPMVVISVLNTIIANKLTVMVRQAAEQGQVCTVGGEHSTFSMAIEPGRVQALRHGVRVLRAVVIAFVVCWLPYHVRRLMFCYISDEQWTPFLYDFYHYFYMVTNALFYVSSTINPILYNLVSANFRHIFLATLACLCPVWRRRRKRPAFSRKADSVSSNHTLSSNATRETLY
# [2] = Intravenous cocaine self-administration; format: in vivo, mice; conditions: 2, 6 or 12 mg/kg i.p.; cocaine 0.1-1 mg/kg/infusion
# Protocol: Once stable performance was achieved, self-administration was assessed once daily in 60 min sessions. Animals received vehicle (saline, i.p.) or SBI-553 (2, 6, or 12 mg/kg, i.p.) immediately prior to placement into self-administration chambers with access to cocaine at doses of 0.1, 0.3, 0.5, or 1 mg/kg/infusion. FIG. 7B-FIG. 7C show cocaine-induced and methamphetamine-induced hyperlocomotion.
# The effect of SBI-553 on cocaine self-administration was both cocaine-dose dependent and SBI-553-dose dependent. […] In the presence of β-arrestin2, SBI-553 reduced activity in mice. A 12 mg/kg (i.p.) dose of SBI-553 decreased both cocaine-and methamphetamine-induced hyperlocomotion in wild-type (WT) mice on a C57BL/6J background (FIG. 7B-FIG. 7C). […] Conversely, a significant reduction in locomotion was absent in global β-arrestin2 KO mice (Slosky L M, et al. (2020) Cell. 181(6):1364-1379e14).
# NTSR1 [3] = molecular target: T1, NTSR1; experiment: Gq protein activation / intracellular Ca++ (FIG. 5A); format: cell-based; set-up: expressed in transfected cells; host or cells: HEK293T cell membranes; conditions: unlike NT
# Source text: as §1
# Target sequence in this assay (P30989 whole entry): as above
# NTSR1 [4] = molecular target: T1, NTSR1; experiment: Confocal β-arrestin2 translocation assay in U2OS cells expressing NTSR1 and β-arrestin2-GFP; format: cell-based; set-up: expressed in transfected cells; also transient transfection; conditions: compared with NT
# Protocol: Scale bar, […]. […] The ordinate axis in counts per minute (CPM) represents specifically bound ^125I-NT. In each experiment, the assays were conducted in quadruplicate, and data are expressed as the mean+SEM (n=4 separate experiments) and were analyzed using one-way ANOVA with Tukey's multiple comparison post hoc test. Curve fitting and statistical analyses were performed using GraphPad Prism V5.04.
# The translocation of β-arrestin2 to the membrane by NTSR1 was assessed using a U2OS cell line permanently expressing the NTSR1 and green fluorescent protein (GFP) tagged-β-arrestin2, as described (Barak et al., 2016). Briefly, on day 1, stable cells were split into MGB101-1-2-LG glass-bottom 384-well plates (MatriCal, Spokane, WA, USA). Each well contained 30) mL aliquots of 8,000 cells in Minimum Eagle's medium (MEM) containing 10% fetal bovine serum (FBS) and 100 U/mL penicillin/streptomycin (Life Technologies, Grand Island, NY, USA). The plates were incubated overnight at 37°° C, in 5% CO2, and on the following day the media was changed to […] serum-and phenol red-free MEM. […] After treatment, plates were returned to the incubator for 40 min. […] Images were analyzed using a wavelet algorithm to measure formation of fluorescence aggregates (Evron et al., 2014). […] Analyzed image results were visually confirmed. […]
# Target sequence in this assay (P30989 whole entry): as above
# Target sequence in this assay (P32121 whole entry partner): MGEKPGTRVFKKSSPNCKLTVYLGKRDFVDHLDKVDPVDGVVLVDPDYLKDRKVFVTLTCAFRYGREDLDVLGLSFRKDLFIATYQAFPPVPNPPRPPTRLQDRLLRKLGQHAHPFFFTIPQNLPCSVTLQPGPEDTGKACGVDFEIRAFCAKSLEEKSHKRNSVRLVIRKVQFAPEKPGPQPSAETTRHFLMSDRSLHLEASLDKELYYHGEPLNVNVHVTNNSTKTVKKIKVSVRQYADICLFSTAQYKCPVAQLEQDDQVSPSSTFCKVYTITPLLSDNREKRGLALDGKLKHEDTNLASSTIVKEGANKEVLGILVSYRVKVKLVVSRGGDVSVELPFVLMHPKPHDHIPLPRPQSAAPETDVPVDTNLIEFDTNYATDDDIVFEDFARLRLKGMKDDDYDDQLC
# NTSR2 = molecular target: T2, NTSR2 (Homo sapiens, UniProt O95665); experiment: Cellular assay of β-arrestin-2 translocation in cells expressing NTSR2; format: cell-based
# T2 construct: expressed in transfected cells; host or cells: HEK293 cells
# T2 sequence (O95665 whole entry, species assumed): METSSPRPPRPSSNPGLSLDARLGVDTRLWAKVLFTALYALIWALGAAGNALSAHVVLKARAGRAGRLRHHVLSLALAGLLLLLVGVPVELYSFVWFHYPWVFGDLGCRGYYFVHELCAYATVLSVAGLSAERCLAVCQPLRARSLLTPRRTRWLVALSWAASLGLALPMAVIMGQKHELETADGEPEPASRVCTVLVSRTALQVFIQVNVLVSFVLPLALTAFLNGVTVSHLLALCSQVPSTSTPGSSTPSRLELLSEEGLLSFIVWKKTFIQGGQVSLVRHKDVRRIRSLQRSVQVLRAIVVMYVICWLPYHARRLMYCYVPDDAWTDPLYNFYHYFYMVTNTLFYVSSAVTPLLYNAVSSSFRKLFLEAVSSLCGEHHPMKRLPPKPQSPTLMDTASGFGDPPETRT
# Protocol: First, using cellular assays, whether IND candidates such as SBI-810 are similar or better than SBI-553 as β-arrestin biased agonist at NTSR1. is assessed. The chemical entities used in this work were synthesized and validated. However, routine validation of the profile of these compounds is performed routinely using both cellular and in vivo assays. For example, HEK293 cells that express either the NTSR1 or NTSR2 are used to assess the functional profile of the various chemical probes. In addition, a series of genetically engineered mouse lines are used to provide an in vivo validation of novel chemical entities for their abilities to module behaviors in these animals.
# Fourth, cellular assays are used to establish that IND ready analogs like SBI-810 are still selective for the NTSR1 rather than NTSR2. The specificity of the lead compounds toward NTSR1. NTSR2. and β-arrestin-2 are tested in respective cellular assays. More specifically, cells expressing either NTSR1 or NTSR2 are used to assess the function of various compound. […] This translocation is not observed in cells expressing NTSR2.
# Fourth, genetically engineered mice are used to assess the effects and mechanisms of novel ligands. The specificity of the lead compounds toward NTSR1, NTSR2, and β-arrestin-2 dependent signaling is examined. […]
# NTSR1 [5] = molecular target: T1, NTSR1; experiment: [3H]SBI-553 saturation binding to NTSR1-containing HEK293T cell membranes; set-up: expressed in transfected cells; host or cells: HEK293T cell membranes; conditions: below 400 nM
# Target sequence in this assay (P30989 whole entry): as the sequence (P30989 whole entry) above
smiles,measurement,setting,value
COc1ccccc1C1CCN(c2nc(C3(F)CC3)nc3ccc(N(C)CCO)cc23)CC1 [SBI-553],Effect on total [3H]NTS binding,NTSR1 [1],increased
same,Increase of NTS affinity for NTSR1 (Kd),NTSR1 [1]; dose-dependent,up to 3.9 fold
same,Increase of number of available [3H]NTS binding sites (Bmax),NTSR1 [1]; dose-dependent,up to 3.3 fold
same,Cocaine self-administration,[2],maintenance intake reduction
same,Activation of G protein Gq / intracellular Ca++,NTSR1 [3],cannot activate the G protein Gq
same,Intracellular translocation of β-arrestin,NTSR1 [4],as effective as NT
same,Translocation of β-arrestin-2 to intracellular compartments,NTSR2,not observed
same,Specific [3H]SBI-553 binding as share of total binding,NTSR1 [5],~50%
